Assay results published in patent US11332473B2, “Substituted pyrazolo[3,4-d]pyrimidines as Wee1 inhibitors” (NUVATION BIO INC., priority 2019, dated 2022).
Values belong to the compound of their own block, whether it stands above or below them.

Experiments:
PKMYT1 kinase = PKMYT1 kinase (Homo sapiens (Human), UniProt Q99640); assay: PKMYT1 IC50 determination, HotSpot Kinase Assay; type: biochemical; conditions: 10 μM ATP, 33P-ATP, Myelin Basic Protein substrate
Protocol: Inhibition of PKMYT1 kinase activity by test compounds was measured by the HotSpot Kinase Assay at Reaction Biology Corporation (Malvern, Pa.). Briefly, Myelin Basic Protein substrate was prepared in Reaction Buffer (20 mM Hepes (pH 7.5), 10 mM MgCl2, 1 mM EGTA, 0.01% Brij35, 0.02 mg/mL BSA, 0.1 mM Na3VO4, 2 mM DTT, 1% DMSO). PKMYT1 kinase was delivered into the substrate solution and gently mixed. Test compounds in 100% DMSO were added into the kinase reaction mixture by Acoustic technology (Echo550; nanoliter range) and incubated for 20 min at room temperature. ^33P-ATP was delivered into the reaction mixture to initiate the reaction. Reactions were carried out at 10 μM ATP. After a 2 hour incubation at room temperature, kinase activity was detected by P81 filter-binding method. […] A nonlinear regression model with a sigmoidal dose response and variable slope within GraphPad Prism (GraphPad Software, San Diego, Calif.) was used to calculate the IC50 value of individual test compounds.

A427 cells = assay: Cytotoxicity assay in A427 cell line (resazurin); type: cell-based; conditions: Homo sapiens, A-427; A427 lung epithelial cell line, 72 hr, inhibition of proliferation
Protocol: A427 (HTB-53; ATCC), a lung epithelial cell line, was seeded in medium (MEM, 41090101; Gibco) at a cell count of 1500 cells per 100 μL per well in a 96 well edge plate (167425; ThermoFisher). Cells were allowed to grow at 37° C. for 24 hr in 5% CO2 environment (culture conditions) in a Nuaire incubator (humidified). Serially diluted test compounds (100 μL) within the desired testing concentration ranges were added to the culture plate and the cells were further incubated in culture conditions for 72 hr. The experiment was terminated at the designated incubation time by replacing the medium with 100 μL of 1 mM of resazurin (R7017; Sigma) prepared in culture medium, and the plates were further incubated in culture conditions for 4-6 hr. Fluorescence was recorded using a multimodal plate reader (Biotek Synergy Neo) at an excitation wavelength of 535 nm and emission wavelength of 590 nm to obtain relative fluorescence units. Data were analysed as follows: the background fluorescence (blank containing only medium) value was subtracted from each reading and normalized with the vehicle control (DMSO treated cells) to obtain percent survival/proliferation. Percent survival was subtracted from 100 to get the percent inhibition of proliferation which was used to calculate IC50 values. Potency of compounds in other cell lines (such as A549, AsPc-1, Panc 10.05, A172, U-87MG) may be determined in an analogous manner.

WEE1 kinase enzyme = WEE1 kinase enzyme (Homo sapiens (Human), UniProt P30291); assay: WEE1 IC50 determination, LanthaScreen Terbium Labeled TR-FRET kinase assay; type: biochemical; conditions: WEE1 enzyme 1 nM, ATP 10 μM
WEE1 kinase enzyme, sequence (P30291 whole entry): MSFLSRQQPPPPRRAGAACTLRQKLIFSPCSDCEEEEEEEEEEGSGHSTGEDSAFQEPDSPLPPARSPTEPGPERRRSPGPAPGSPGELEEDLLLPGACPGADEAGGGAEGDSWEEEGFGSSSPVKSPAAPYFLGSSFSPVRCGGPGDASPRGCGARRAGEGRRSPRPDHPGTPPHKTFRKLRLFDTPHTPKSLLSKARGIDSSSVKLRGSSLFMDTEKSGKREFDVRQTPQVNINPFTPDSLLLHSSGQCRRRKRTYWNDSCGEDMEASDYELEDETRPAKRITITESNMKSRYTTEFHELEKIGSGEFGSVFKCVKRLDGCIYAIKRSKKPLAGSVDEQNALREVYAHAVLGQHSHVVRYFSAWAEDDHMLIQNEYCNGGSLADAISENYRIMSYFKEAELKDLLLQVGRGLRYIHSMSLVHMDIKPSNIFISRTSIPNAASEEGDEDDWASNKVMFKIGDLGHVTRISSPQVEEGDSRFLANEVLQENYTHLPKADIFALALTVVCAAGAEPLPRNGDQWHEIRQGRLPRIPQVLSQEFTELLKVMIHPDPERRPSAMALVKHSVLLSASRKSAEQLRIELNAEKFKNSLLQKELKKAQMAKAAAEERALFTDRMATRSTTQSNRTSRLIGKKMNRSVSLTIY
Protocol: IC50 values of compounds against WEE1 kinase enzyme were determined by LanthaScreen™ Terbium Labeled TR-FRET assay. Kinase assays were performed in 1X kinase buffer (#PV6135, Invitrogen, Life Technologies Grand Island, N.Y.) where total reaction volume was 10 μL in low-volume 384-well plates (#4511, Corning). Serially diluted compounds (3-fold) were incubated with WEE1 Enzyme (1 nM) (#PR7373A, Invitrogen, Life Technologies, Grand Island, N.Y.) for 10 min; a mixture of ATP (10 μM) (#A1852, Sigma, St. Louis, Mo.) and fluorescent-PolyGT substrate (200 nM) (#PV3610, Invitrogen, Life Technologies Grand Island, N.Y.) was added and incubated in dark at room temperature for 1 h. After 1 h, 10 μL stop solution containing Terbium labeled antibody (4 nM) (#PV3529, Invitrogen, Life Technologies Grand Island, N.Y.) and EDTA (#E5134, Sigma, St. Louis, Mo.) (20 mM) in TR-FRET dilution buffer (#PV3574, Invitrogen, Life Technologies Grand Island, N.Y.) was added. Readings were taken in a Synergy Neo Plate reader (BioTek, Winooski, Vt.) at single excitation of 340 nm and dual emission at 495 nm and 520 nm respectively.
The % activity of test samples was calculated as (Sample−Min)*100/(Max−Min). [Max: DMSO control, complete reaction with enzyme & DMSO and Min: No enzyme & DMSO].

PKMYT1 kinase, sequence (Q99640 whole entry): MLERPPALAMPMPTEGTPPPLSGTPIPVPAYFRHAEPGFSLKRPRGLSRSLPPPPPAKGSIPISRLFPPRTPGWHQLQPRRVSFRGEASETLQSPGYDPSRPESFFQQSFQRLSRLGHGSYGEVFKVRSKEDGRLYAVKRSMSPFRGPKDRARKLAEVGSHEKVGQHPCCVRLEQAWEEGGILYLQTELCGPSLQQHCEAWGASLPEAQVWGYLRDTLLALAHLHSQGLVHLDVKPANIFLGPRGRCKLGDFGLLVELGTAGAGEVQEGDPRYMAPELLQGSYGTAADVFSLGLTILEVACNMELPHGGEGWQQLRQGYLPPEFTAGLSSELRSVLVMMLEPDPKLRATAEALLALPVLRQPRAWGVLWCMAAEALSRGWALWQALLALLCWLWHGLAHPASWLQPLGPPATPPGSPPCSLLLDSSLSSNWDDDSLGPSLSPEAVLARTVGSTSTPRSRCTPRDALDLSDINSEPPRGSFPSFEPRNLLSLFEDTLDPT

SMILES: CC(C)n1c(=O)c2cnc(Nc3ccc4c(c3)CCNC4)nc2n1-c1nc(C(C)(C)C#N)ccc1F [1.321, 2-(5-fluoro-6-(2-isopropyl-3-oxo-6-(1,2,3,4-tetrahydroisoquinolin-6-ylamino)-2,3-dihydro-1H-pyrazolo[3,4-d]pyrimidin-1-yl)pyridin-2-yl)-2-methylpropanenitrile]
- IC50 (PKMYT1 kinase): 11.2 µM
- IC50 (A427 cells): 3540 nM
- IC50 (WEE1 kinase enzyme): 13 nM

SMILES: CC(C)n1c(=O)c2cnc(Nc3ccc4c(c3)CCNC4)nc2n1-c1ccnc(C2(C#N)CC2)c1 [1.67, 1-(4-(2-isopropyl-3-oxo-6-(1,2,3,4-tetrahydroisoquinolin-6-ylamino)-2,3-dihydro-1H-pyrazolo[3,4-d]pyrimidin-1-yl)pyridin-2-yl)cyclopropanecarbonitrile]
- IC50 (PKMYT1 kinase): 2.9 µM
- IC50 (A427 cells): 2580 nM
- IC50 (WEE1 kinase enzyme): 15 nM

SMILES: CC(C)(F)c1nc(-n2c3nc(Nc4ccc5c(c4)CCNC5(C)C)ncc3c(=O)n2C2CC2)ccc1F [1.5, 2-cyclopropyl-6-((1,1-dimethyl-1,2,3,4-tetrahydroisoquinolin-6-yl)amino)-1-(5-fluoro-6-(2-fluoropropan-2-yl)pyridin-2-yl)-1,2-dihydro-3H-pyrazolo[3,4-d]pyrimidin-3-one]
- IC50 (PKMYT1 kinase): 5.5 µM
- IC50 (A427 cells): 7600 nM
- IC50 (WEE1 kinase enzyme): 5 nM

SMILES: CCn1c(=O)c2cnc(Nc3ccc4c(c3)CCNC4)nc2n1-c1ccc(F)c(C(C)(C)O)n1 [1.261, 2-ethyl-1-(5-fluoro-6-(2-hydroxypropan-2-yl)pyridin-2-yl)-6-((1,2,3,4-tetrahydroisoquinolin-6-yl)amino)-1,2-dihydro-3H-pyrazolo[3,4-d]pyrimidin-3-one]
- IC50 (PKMYT1 kinase): 4.54 µM
- IC50 (A427 cells): 900 nM
- IC50 (WEE1 kinase enzyme): 9 nM

SMILES: CCn1c(=O)c2cnc(Nc3ccc4c(c3)CCNC43CC3)nc2n1-c1cccc(C2(C#N)CC2)n1 [1.42, 1-(6-(6-(2′,3′-dihydro-1^1H-spiro[cyclopropane-1,4′-isoquinoline]-7′-ylamino)-2-ethyl-3-oxo-2,3-dihydro-1H-pyrazolo[3,4-d]pyrimidin-1-yl)pyridin-2-yl)cyclopropanecarbonitrile]
- IC50 (A427 cells): 255 nM
- IC50 (WEE1 kinase enzyme): 1 nM

SMILES: CCn1c(=O)c2cnc(Nc3ccc4c(c3)CCNC4(C)C)nc2n1-c1nc(C(C)(C)C#N)ccc1F [1.335, 2-(6-(6-(1,1-dimethyl-1,2,3,4-tetrahydroisoquinolin-6-ylamino)-2-ethyl-3-oxo-2,3-dihydro-1H-pyrazolo[3,4-d]pyrimidin-1-yl)-5-fluoropyridin-2-yl)-2-methylpropanenitrile]
- IC50 (A427 cells): 4730 nM
- IC50 (WEE1 kinase enzyme): 5 nM

SMILES: CCn1c(=O)c2cnc(Nc3ccc4c(c3)CNCC4)nc2n1-c1ccc(F)c(C(C)(C)O)n1 [1.262, 2-ethyl-1-(5-fluoro-6-(2-hydroxypropan-2-yl)pyridin-2-yl)-6-((1,2,3,4-tetrahydroisoquinolin-7-yl)amino)-1,2-dihydro-3H-pyrazolo[3,4-d]pyrimidin-3-one]
- IC50 (PKMYT1 kinase): 16.8 µM
- IC50 (WEE1 kinase enzyme): 8 nM

SMILES: CC(C)n1c(=O)c2cnc(Nc3ccc4c(c3)CNCC4)nc2n1-c1ccc(F)c(C(C)(C)O)n1 [1.250, 1-(5-fluoro-6-(2-hydroxypropan-2-yl)pyridin-2-yl)-2-isopropyl-6-((1,2,3,4-tetrahydroisoquinolin-7-yl)amino)-1,2-dihydro-3H-pyrazolo[3,4-d]pyrimidin-3-one]
- IC50 (PKMYT1 kinase): 13.5 µM
- IC50 (WEE1 kinase enzyme): 8 nM

SMILES: CC(C)n1c(=O)c2cnc(Nc3ccc4c(c3)CCNC4)nc2n1-c1cccc(C2(CF)CC2)n1 [1.91, 1-(6-(1-(fluoromethyl)cyclopropyl)pyridin-2-yl)-2-isopropyl-6-((1,2,3,4-tetrahydroisoquinolin-6-yl)amino)-1,2-dihydro-3H-pyrazolo[3,4-d]pyrimidin-3-one]
- IC50 (PKMYT1 kinase): 6.92 µM
- IC50 (WEE1 kinase enzyme): 3 nM

SMILES: CC(C)n1c(=O)c2cnc(Nc3ccc4c(c3)CNCC4)nc2n1-c1nc(C(C)(C)C#N)ccc1F [1.322, 2-(5-fluoro-6-(2-isopropyl-3-oxo-6-(1,2,3,4-tetrahydroisoquinolin-7-ylamino)-2,3-dihydro-1H-pyrazolo[3,4-d]pyrimidin-1-yl)pyridin-2-yl)-2-methylpropanenitrile]
- IC50 (PKMYT1 kinase): 7.49 µM

Second part, led by results:

- IC50 (PKMYT1 kinase): 0.691 µM
- IC50 (WEE1 kinase enzyme): 13 nM
SMILES: CCn1c(=O)c2cnc(Nc3ccc4c(c3)CCNC4)nc2n1-c1cccc(C2(C#N)CC2)n1 [1.37, 1-(6-(2-ethyl-3-oxo-6-((1,2,3,4-tetrahydroisoquinolin-6-yl)amino)-2,3-dihydro-1H-pyrazolo[3,4-d]pyrimidin-1-yl)pyridin-2-yl)cyclopropane-1-carbonitrile]
- IC50 (A427 cells): 660 nM

- IC50 (PKMYT1 kinase): > 30 µM
- IC50 (WEE1 kinase enzyme): 45 nM
SMILES: CC(C)n1c(=O)c2cnc(Nc3ccc4c(c3)CNCC4)nc2n1-c1csc(C2CC2)n1 [1.465, 1-(2-cyclopropylthiazol-4-yl)-2-isopropyl-6-((1,2,3,4-tetrahydroisoquinolin-7-yl)amino)-1,2-dihydro-3H-pyrazolo[3,4-d]pyrimidin-3-one]
- IC50 (A427 cells): > 30000 nM

- IC50 (PKMYT1 kinase): 6.69 µM
- IC50 (WEE1 kinase enzyme): 7 nM
SMILES: CC(C)n1c(=O)c2cnc(Nc3ccc4c(c3)CCNC4(C)C)nc2n1-c1ccc(F)c(C(C)(C)O)n1 [1.251, 6-((1,1-dimethyl-1,2,3,4-tetrahydroisoquinolin-6-yl)amino)-1-(5-fluoro-6-(2-hydroxypropan-2-yl)pyridin-2-yl)-2-isopropyl-1,2-dihydro-3H-pyrazolo[3,4-d]pyrimidin-3-one]
- IC50 (A427 cells): 12400 nM

- IC50 (PKMYT1 kinase): 0.767 µM
- IC50 (WEE1 kinase enzyme): 8 nM
SMILES: N#CC1(c2cccc(-n3c4nc(Nc5ccc6c(c5)CNCC6)ncc4c(=O)n3CC(F)(F)F)n2)CC1 [1.32, 1-(6-(3-oxo-6-(1,2,3,4-tetrahydroisoquinolin-7-ylamino)-2-(2,2,2-trifluoroethyl)-2,3-dihydro-1H-pyrazolo[3,4-d]pyrimidin-1-yl)pyridin-2-yl)cyclopropanecarbonitrile]
- IC50 (A427 cells): 870 nM

- IC50 (PKMYT1 kinase): 0.121 µM
- IC50 (WEE1 kinase enzyme): 4 nM
SMILES: CCn1c(=O)c2cnc(Nc3ccc4c(c3)CNCC4(C)C)nc2n1-c1cccc(C2(C#N)CC2)n1 [1.40, 1-(6-(6-((4,4-dimethyl-1,2,3,4-tetrahydroisoquinolin-7-yl)amino)-2-ethyl-3-oxo-2,3-dihydro-1H-pyrazolo[3,4-d]pyrimidin-1-yl)pyridin-2-yl)cyclopropane-1-carbonitrile]

- IC50 (PKMYT1 kinase): 3.56 µM
- IC50 (WEE1 kinase enzyme): 140 nM
SMILES: CC(C)n1c(=O)c2cnc(Nc3ccc4c(c3)CNCC43CC3)nc2n1-c1ccc(F)c(C(C)(C)O)n1 [1.254, 6-((2′,3′-dihydro-1′H-spiro[cyclopropane-1,4′-isoquinolin]-7′-yl)amino)-1-(5-fluoro-6-(2-hydroxypropan-2-yl)pyridin-2-yl)-2-isopropyl-1,2-dihydro-3H-pyrazolo[3,4-d]pyrimidin-3-one]

- IC50 (WEE1 kinase enzyme): 1 nM
SMILES: CCn1c(=O)c2cnc(Nc3ccc4c(c3)CCNC4(C)C)nc2n1-c1cccc(C2(C#N)CC2)n1 [1.39, 1-(6-(6-(1,1-dimethyl-1,2,3,4-tetrahydroisoquinolin-6-ylamino)-2-ethyl-3-oxo-2,3-dihydro-1H-pyrazolo[3,4-d]pyrimidin-1-yl)pyridin-2-yl)cyclopropanecarbonitrile]
- IC50 (A427 cells): 510 nM

- IC50 (WEE1 kinase enzyme): 18 nM
SMILES: CCn1c(=O)c2cnc(Nc3ccc4c(c3)CCNC4(C)C)nc2n1-c1ccnc(C2(C#N)CC2)c1 [1.63, 1-(4-(6-((1,1-dimethyl-1,2,3,4-tetrahydroisoquinolin-6-yl)amino)-2-ethyl-3-oxo-2,3-dihydro-1H-pyrazolo[3,4-d]pyrimidin-1-yl)pyridin-2-yl)cyclopropane-1-carbonitrile]
- IC50 (A427 cells): 17200 nM
